Data from patent publication EP1178967B1, “QUINOLINE DERIVATIVES AS INHIBITORS OF MEK ENZYMES” (AstraZeneca AB, priority 1999, dated 2000).

Molecular target: human p45MEK1 (GST-MEK) (Homo sapiens, UniProt Q02750)
Assay: Assay for inhibitors of the MAP kinase pathway (coupled GST-MEK / GST-MAPK / MBP 33P incorporation assay)
Format: biochemical
Conditions: GST-MEK activated by c-raf, 60min at room temperature with inhibitor, MBP substrate
Procedure: To evaluate inhibitors of the MAPK pathway a coupled assay was carried out which measures phosphorylation of serine/threonine residues present in the substrate in the presence or absence of inhibitor. Recombinant glutathione S-transferase fusion protein containing human p45MEK1 (GST-MEK) was activated by c-raf (Sf9 insect cell lysate from triple baculoviral infection with c-raf/ras/lck) and used for the assay. Active GST-MEK was first used to activate a recombinant glutathione S-transferase fusion protein containing p44MAP kinase (GST-MAPK) in the presence of ATP and Mg^2+ for 60min at room temperature in the presence or absence of potential inhibitors. The activated GST-MAPK was then incubated with myelin basic protein (MBP) as substrate for 10min at room temperature in the presence of ATP, Mg^2+ and ^33P-ATP. The reaction was stopped by addition of 20% v/v phosphoric acid. Incorporation of ^33P into the myelin basic protein was determined by capture of the substrate on a filter mat, washing and counting using scintillation methods. The extent of inhibition was determined by comparison with untreated controls.
The final assay solution contained 10mM Tris, pH 7.5, 0.05mM EGTA, 8.33µM [γ^33P]ATP, 8.33mM Mg(OAc)2, 0.5mM sodium orthovanadate, 0.05%w/v BSA, 6.5ng GST-MEK, 1µg GST-MAPK and 16.5µg MBP in a reaction volume of 60µl.

human p45MEK1 (GST-MEK), sequence (Q02750 whole entry): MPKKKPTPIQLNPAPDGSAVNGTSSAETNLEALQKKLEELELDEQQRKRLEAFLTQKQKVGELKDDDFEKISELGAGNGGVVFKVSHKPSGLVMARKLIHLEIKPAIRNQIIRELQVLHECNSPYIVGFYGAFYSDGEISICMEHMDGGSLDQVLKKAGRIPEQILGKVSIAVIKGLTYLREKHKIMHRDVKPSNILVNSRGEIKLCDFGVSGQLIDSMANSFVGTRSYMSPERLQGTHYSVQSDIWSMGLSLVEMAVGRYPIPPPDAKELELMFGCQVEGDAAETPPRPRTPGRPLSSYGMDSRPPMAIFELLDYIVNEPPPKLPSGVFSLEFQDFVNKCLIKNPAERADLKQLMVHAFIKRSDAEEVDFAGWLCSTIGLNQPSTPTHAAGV

Structure (SMILES): COc1cc2ncc(C#N)c(Nc3ccc(OCC4OCCO4)cc3)c2cc1OC [Compound No 252]
- IC50: 150 nM
